{"source": "paper PMC12040169", "about": "(PLOS Biology, 2025)", "assay": "in vitro", "conditions": "human, hela cells, % viability"}
{"smiles": "CCN1CCN(c2cc(C)nc3c(-c4ccccc4)cnn23)CC1", "note": "[CBK287793]", "values": [{"measurement": "viability at 28.5 h, 10 µM", "result": 88.4, "unit": "%"}]}
{"smiles": "CCOc1cc(C)ccc1S(=O)(=O)n1nnc2ccccc21", "note": "[CBK287796]", "values": [{"measurement": "viability at 28.5 h, 10 µM", "result": 97.3, "unit": "%"}]}
{"smiles": "Cc1nc2c(-c3ccccc3)cnn2c(N2CCCC2)c1C", "note": "[CBK287799]", "values": [{"measurement": "viability at 28.5 h, 10 µM", "result": 89, "unit": "%"}]}
{"smiles": "O=C(c1ccncc1)N1CCc2cc(S(=O)(=O)N3CCOCC3)ccc21", "note": "[CBK287800]", "values": [{"measurement": "viability at 28.5 h, 10 µM", "result": 92.8, "unit": "%"}]}
{"smiles": "Cc1ccc2oc(C(=O)Nc3ccc(-n4cnnn4)cc3)c(C)c2c1", "note": "[CBK287804]", "values": [{"measurement": "viability at 28.5 h, 10 µM", "result": 88.1, "unit": "%"}]}
{"smiles": "CCCNc1cc(C)nc2cc(-c3ccc(OC)c(OC)c3)nn12", "note": "[CBK287805]", "values": [{"measurement": "viability at 28.5 h, 10 µM", "result": 88.2, "unit": "%"}]}
{"smiles": "COc1ccc2ncc(C#N)c(Nc3ccc(OC)c(OC)c3)c2c1", "note": "[CBK287808]", "values": [{"measurement": "viability at 28.5 h, 10 µM", "result": 92.3, "unit": "%"}]}
{"smiles": "Cc1ccc(NC(=O)Cn2cnc3c(-c4ccccc4)csc3c2=O)cc1", "note": "[CBK287812]", "values": [{"measurement": "viability at 28.5 h, 10 µM", "result": 104, "unit": "%"}]}
{"smiles": "COc1ccc(NC(=O)c2c[nH]c3nc(C)ccc3c2=O)cc1", "note": "[CBK287816]", "values": [{"measurement": "viability at 28.5 h, 10 µM", "result": 88.4, "unit": "%"}]}
{"smiles": "COc1ccc(NC(=O)CSc2cc(-n3cccn3)ncn2)cc1", "note": "[CBK287819]", "values": [{"measurement": "viability at 28.5 h, 10 µM", "result": 116, "unit": "%"}]}
{"smiles": "Cc1ccc(NC(=O)CSc2cc(-n3nc(C)cc3C)ncn2)cc1", "note": "[CBK287820]", "values": [{"measurement": "viability at 28.5 h, 10 µM", "result": 89, "unit": "%"}]}
{"smiles": "CCCCNC(=O)CCn1c(=O)[nH]c2ccccc2c1=O", "note": "[CBK287824]", "values": [{"measurement": "viability at 28.5 h, 10 µM", "result": 97, "unit": "%"}]}
{"smiles": "CCn1nnc2c(=O)n(CC(=O)Nc3ccccc3)cnc21", "note": "[CBK287828]", "values": [{"measurement": "viability at 28.5 h, 10 µM", "result": 85.5, "unit": "%"}]}
{"smiles": "O=C(Nc1nnc(Cc2cccs2)o1)c1ccccc1", "note": "[CBK287831]", "values": [{"measurement": "viability at 28.5 h, 10 µM", "result": 83.9, "unit": "%"}]}
{"smiles": "O=C(c1ccc(F)cc1)N1CCN(c2ccc(Nc3ccncc3)nn2)CC1", "note": "[CBK287836]", "values": [{"measurement": "viability at 28.5 h, 10 µM", "result": 99.7, "unit": "%"}]}
{"smiles": "Cc1cc(=O)n2c(-c3ccc(NS(=O)(=O)c4cccnc4)cc3)csc2n1", "note": "[CBK287837]", "values": [{"measurement": "viability at 28.5 h, 10 µM", "result": 91.6, "unit": "%"}]}
{"smiles": "CCCn1c(C(=O)Nc2cccnc2)cc2c(=O)n(C)c(=O)n(C)c21", "note": "[CBK287838]", "values": [{"measurement": "viability at 28.5 h, 10 µM", "result": 90.8, "unit": "%"}]}
{"smiles": "O=S(=O)(c1ccccc1)N1CCN(c2cnccn2)CC1", "note": "[CBK287839]", "values": [{"measurement": "viability at 28.5 h, 10 µM", "result": 88.9, "unit": "%"}]}
{"smiles": "COc1ccc(NC(=O)c2csc(Nc3ccccc3)n2)cc1OC", "note": "[CBK287840]", "values": [{"measurement": "viability at 28.5 h, 10 µM", "result": 83.7, "unit": "%"}]}
{"smiles": "Cc1cc(C)cc(NC(=O)Cc2cc(=O)[nH]c(SCc3ccccc3)n2)c1", "note": "[CBK287842]", "values": [{"measurement": "viability at 28.5 h, 10 µM", "result": 112, "unit": "%"}]}
{"smiles": "Cc1nc(-c2nnc(NC(=O)COc3ccc(Cl)cc3Cl)o2)cs1", "note": "[CBK287843]", "values": [{"measurement": "viability at 28.5 h, 10 µM", "result": 109, "unit": "%"}]}
{"smiles": "Nc1nc2ccc(-c3nc4ccccc4o3)cc2s1", "note": "[CBK287846]", "values": [{"measurement": "viability at 28.5 h, 10 µM", "result": 57.4, "unit": "%"}]}
{"smiles": "CCN1C(=O)CC(n2c(C)nc3ccccc32)C1=O", "note": "(stereo not drawn) [CBK287847]", "values": [{"measurement": "viability at 28.5 h, 10 µM", "result": 108, "unit": "%"}]}
{"smiles": "Cc1cccc(Nc2ncc(Cc3ccccc3C)s2)n1", "note": "[CBK287849]", "values": [{"measurement": "viability at 28.5 h, 10 µM", "result": 94.8, "unit": "%"}]}
{"smiles": "O=C(O)c1cnc2ccc(F)cc2c1N1CCOCC1", "note": "[CBK287851]", "values": [{"measurement": "viability at 28.5 h, 10 µM", "result": 82.5, "unit": "%"}]}
{"smiles": "Cc1ccccc1NC(=O)Cn1c(=O)cnc2ccccc21", "note": "[CBK287852]", "values": [{"measurement": "viability at 28.5 h, 10 µM", "result": 100, "unit": "%"}]}
{"smiles": "O=c1sc(Nc2ccccc2)nc2ccsc12", "note": "[CBK287853]", "values": [{"measurement": "viability at 28.5 h, 10 µM", "result": 91.9, "unit": "%"}]}
{"smiles": "CCc1ccc(Oc2cc(N3CCC(C(=O)NC4CC4)CC3)ncn2)cc1", "note": "[CBK287854]", "values": [{"measurement": "viability at 28.5 h, 10 µM", "result": 102, "unit": "%"}]}
{"smiles": "CC(=O)c1cnc2nc(-c3cccnc3)nn2c1C", "note": "[CBK287859]", "values": [{"measurement": "viability at 28.5 h, 10 µM", "result": 112, "unit": "%"}]}
{"smiles": "CCC(=O)c1c(O)n(-c2ccccc2)c(=O)[nH]c1=O", "note": "[CBK287862]", "values": [{"measurement": "viability at 28.5 h, 10 µM", "setting": "bulk resorufin, single well", "result": 96.8, "unit": "%"}]}
{"smiles": "CCCCCOc1ccc(C2NC(=O)NC2=O)cc1", "note": "(stereo not drawn) [CBK287865]", "values": [{"measurement": "viability at 28.5 h, 10 µM", "result": 89, "unit": "%"}]}
{"smiles": "O=C(CCC1CCCCC1)Nc1c[nH]c(=O)[nH]c1=O", "note": "[CBK287867]", "values": [{"measurement": "viability at 28.5 h, 10 µM", "result": 90.4, "unit": "%"}]}
{"smiles": "c1ccc(-c2onc3cc4c(cc23)OCCO4)cc1", "note": "[CBK287869]", "values": [{"measurement": "viability at 28.5 h, 10 µM", "result": 82.8, "unit": "%"}]}
{"smiles": "O=C1CCCc2nccc(-c3ccc(Cl)cc3)c21", "note": "[CBK287870]", "values": [{"measurement": "viability at 28.5 h, 10 µM", "result": 82.9, "unit": "%"}]}
{"smiles": "CC(=O)c1c(C)c2c(=O)n3c(nc2[nH]c1=O)CCC3", "note": "[CBK287872]", "values": [{"measurement": "viability at 28.5 h, 10 µM", "result": 93.6, "unit": "%"}]}
{"smiles": "O=C1N=C2C=CC=CN2C(=O)C1Cc1ccccc1", "note": "(stereo not drawn) [CBK287874]", "values": [{"measurement": "viability at 28.5 h, 10 µM", "result": 110, "unit": "%"}]}
{"smiles": "CCCCc1c(O)[nH]c2nc3ccccc3n2c1=O", "note": "[CBK287875]", "values": [{"measurement": "viability at 28.5 h, 10 µM", "result": 98.1, "unit": "%"}]}
{"smiles": "COc1ccc2c(c1)Cc1sc(NC(C)=O)nc1-2", "note": "[CBK287876]", "values": [{"measurement": "viability at 28.5 h, 10 µM", "result": 93.8, "unit": "%"}]}
{"smiles": "COc1ccc(CNC(=O)c2nc(-c3ccccn3)no2)cc1", "note": "[CBK287877]", "values": [{"measurement": "viability at 28.5 h, 10 µM", "result": 90.3, "unit": "%"}]}
{"smiles": "COc1ccc(Nc2nccc3c2nnn3C)cc1", "note": "[CBK287879]", "values": [{"measurement": "viability at 28.5 h, 10 µM", "result": 80.9, "unit": "%"}]}
{"smiles": "N#Cc1c(N)nc2c(c1-c1cccnc1)CCCC2", "note": "[CBK287885]", "values": [{"measurement": "viability at 28.5 h, 10 µM", "result": 85.8, "unit": "%"}]}
{"smiles": "c1ccc2c(c1)CCCN2c1ncnc2n[nH]cc12", "note": "[CBK287886]", "values": [{"measurement": "viability at 28.5 h, 10 µM", "result": 69.3, "unit": "%"}]}
{"smiles": "Cn1c(=O)n(C)c2cc(-c3nc4ccccc4c(=O)[nH]3)ccc21", "note": "[CBK287887]", "values": [{"measurement": "viability at 28.5 h, 10 µM", "result": 98.5, "unit": "%"}]}
{"smiles": "CCc1nnc2ccc(NCc3ccccc3)nn12", "note": "[CBK287888]", "values": [{"measurement": "viability at 28.5 h, 10 µM", "result": 110, "unit": "%"}]}
{"smiles": "COc1cccc(C2CC(=O)Nc3n[nH]cc32)c1OC", "note": "(stereo not drawn) [CBK287889]", "values": [{"measurement": "viability at 28.5 h, 10 µM", "result": 88.1, "unit": "%"}]}
{"smiles": "COc1ccc(/N=c2/cc(C)[nH]c3ncnn23)cc1", "note": "[CBK287893]", "values": [{"measurement": "viability at 28.5 h, 10 µM", "result": 91.1, "unit": "%"}]}
{"smiles": "CC(C)(C)C1=Nn2c(nnc2-c2n[nH]c3c2CCC3)SC1", "note": "[CBK287894]", "values": [{"measurement": "viability at 28.5 h, 10 µM", "result": 87.7, "unit": "%"}]}
{"smiles": "Cc1ccc(Nc2nc3c(c(=O)[nH]2)CCCC3)cc1", "note": "[CBK287895]", "values": [{"measurement": "viability at 28.5 h, 10 µM", "result": 100, "unit": "%"}]}
